Source: patent US20200000742A1, “COMBINATION” (priority 2016, published 2020)

Tested on: log phase NDM-1 Klebsiella Pneumoniae (NCTC13443)
Assay: Time-kill method over 24 hours (CFU counts)
Type: cell-based
Settings: FIG. 1
Method: As described hereinabove, time-kill methods are another accepted test for ascertaining the presence or absence of synergy, and involve comparing the dynamic effect of a drug combination with each drug alone when assessing the effect on bacterial log or stationary-growth over time.
• 1. Bacterial strain used: NCTC13443 strain of Klebsiella Pneumoniae • 2. Growth of bacteria: Log phase growth of NCTC13443 was carried out according to known methods in the art, e.g. SOP R-005-00 Log Phase Growth of Bacteria. • 3. Compound preparation: dichlorophen and meropenem trihydrate were both obtained from commercial sources (e.g. Sigma-Aldrich® UK). • 4. The overnight culture was diluted with nutrient broth (Oxoid) to 10^7 CFU/ml and 280 μl and 290 μl of the culture was added to each combination well and drug respectively, to make the final concentration of 300 μl. • 5. Incubation of the compounds with the bacterial suspension was carried out for 24 hours. At 0, 2, 4, 7 and 24 hours, CFU counts were performed to measure the kill effects of the drug combination.

| SMILES | effect against log phase NDM-1 Klebsiella Pneumoniae (time-kill) (used alone at 64 mg/L) | effect against log phase NDM-1 Klebsiella Pneumoniae (time-kill) (used alone at 512 mg/L) |
| --- | --- | --- |
| Oc1ccc(Cl)cc1Cc1cc(Cl)ccc1O [dichlorophen, 4-chloro-2-[(5-chloro-2-hydroxyphenyl)methyl] phenol] | little or no effect |  |
| C[C@@H](O)[C@H]1C(=O)N2C(C(=O)O)=C(S[C@@H]3CN[C@H](C(=O)N(C)C)C3)[C@H](C)[C@H]12 [meropenem trihydrate] |  | little or no effect |
